Experimental data reported in ChEMBL document CHEMBL1158127, “Bioactive compounds from the gorgonian Briareum polyanthes. Correction of the structures of four asbestinane-type diterpenes” (J Nat Prod, 2006).
Converted amounts (≈) assume the structure as drawn. The source made the active and inactive calls. The calls are words filed in the database; no cut-off is given here.

Key:
Plasmodium falciparum = experiment: Antiplasmodial activity against chloroquine-resistant Plasmodium falciparum W2; type: functional, organism-based
[1] = test system: Venezuelan equine encephalitis virus; experiment: Antiviral activity against Venezuelan equine encephalomyelitis virus; type: functional, organism-based
Influenza A virus H3N2 = experiment: Antiviral activity against Influenza A virus H3N2; type: functional, organism-based
[2] = test system: Mycobacterium tuberculosis; experiment: Antituberculosis activity against Mycobacterium tuberculosis H37Rv at 128 ug/mL; type: functional
Influenza A virus = experiment: Antiviral activity against Influenza A virus H1N1; type: functional, organism-based
West Nile virus = experiment: Antiviral activity against West Nile virus; type: functional, organism-based
dengue virus type 2 = experiment: Antiviral activity against Dengue virus type 2; type: functional, organism-based
Hepatitis C virus = experiment: Antiviral activity against HCV; type: functional, organism-based; conditions: Hepacivirus hominis
Hepatitis B virus = experiment: Antiviral activity against Hepatitis B virus; type: functional, organism-based
Yellow fever virus = experiment: Antiviral activity against yellow fever virus; type: functional, organism-based
Influenza B virus = experiment: Antiviral activity against Influenza B virus; type: functional, organism-based
[3] = test system: Respiratory syncytial virus; experiment: Antiviral activity against RSV type A; type: functional, organism-based
CCRF-CEM = experiment: Cytotoxicity against human CCRF-CEM cells; type: functional, cell-based
Human gammaherpesvirus 4 = experiment: Antiviral activity against Epstein-Barr virus; type: functional, organism-based

Compound | IC50 (Plasmodium falciparum) | Activity [1] | Activity (Influenza A virus H3N2) | Activity [2] | Activity (Influenza A virus) | Activity (West Nile virus) | Activity (dengue virus type 2) | Activity (Hepatitis C virus) | Activity (Hepatitis B virus) | Activity (Yellow fever virus) | Activity (Influenza B virus) | Activity [3] | IC50 (CCRF-CEM) | IC50 (Human gammaherpesvirus 4)
CC(=O)O[C@H]1[C@H]2C3C[C@](C)(O)C(=O)CC[C@]4(C)OC[C@H](C)C(C[C@H]1C)[C@@H]2C4O3 (stereo partly drawn) | 18 µg/mL (≈ 45.6 µM) |  |  |  |  |  |  |  |  |  |  |  |  | 
CO[C@@H]1CC[C@]2(C)OC[C@H](C)C3C[C@@H](C)[C@@H](OC(C)=O)[C@H]4C(C[C@H]1C)OC2[C@@H]34 (stereo partly drawn) | 16 µg/mL (≈ 40.6 µM) | inactive | inactive | inactive | inactive | inactive | inactive | inactive | inactive | inactive | inactive | inactive |  | 
C=C1CC2OC3[C@H]4C(C[C@@H](C)[C@@H](OC(C)=O)[C@@H]24)[C@@H](C)CO[C@@]3(C)CC[C@H]1O (stereo partly drawn) | 13 µg/mL (≈ 34.3 µM) | inactive | inactive | inactive | inactive | inactive | inactive | inactive | inactive | inactive | inactive | inactive |  | 
CC(=O)O[C@H]1[C@H]2C3/C=C(/C)[C@H](O)CC[C@]4(C)OC[C@H](C)C(C[C@H]1C)[C@@H]2C4O3 (stereo partly drawn) | 18 µg/mL (≈ 47.6 µM) | inactive | inactive | inactive | inactive | inactive | inactive | inactive | inactive | inactive | inactive | inactive |  | 
CCCC(=O)O[C@]1(C)CCC2[C@@H]3C4OC(C[C@](C)(O)[C@H](O)CC[C@]4(C)OC(=O)[C@@H]2C)[C@@H]31 (stereo partly drawn) [BRIARELLIN Q] | 3 µg/mL (≈ 6.84 µM) |  |  | 43% |  |  |  |  |  |  |  |  |  | 
CCCC(=O)O[C@]1(C)CCC2[C@@H]3C4OC(C/C(C)=C\CC[C@]4(C)OC(=O)[C@@H]2C)[C@@H]31 (stereo partly drawn) [BRIARELLIN R] | 15 µg/mL (≈ 37.1 µM) |  | inactive | 91% | inactive | inactive |  | inactive |  |  | inactive |  | 8.9 µg/mL (≈ 22 µM) | 
C=C1CC2OC3[C@H]4C(C[C@@H](C)[C@@H](OC(C)=O)[C@@H]24)[C@@H](C)CO[C@@]3(C)CC[C@@H]1O (stereo partly drawn) | 17 µg/mL (≈ 44.9 µM) | inactive | inactive | inactive | inactive | inactive | inactive | inactive | inactive | inactive | inactive | inactive |  | 
CC(=O)O[C@H]1[C@H]2C3CC(=O)CCC[C@]4(C)OC[C@H](C)C(C[C@H]1C)[C@@H]2C4O3 (stereo partly drawn) [NOR-ASBESTININ A] | 14 µg/mL (≈ 38.4 µM) | inactive | inactive | inactive | inactive | inactive | inactive | inactive | inactive | inactive | inactive | inactive |  | 
C=C1CC2OC3[C@H]4C(C[C@@H](C)[C@@H](OC(C)=O)[C@@H]24)[C@@H](C)CO[C@@]3(C)CC[C@H]1OO (stereo partly drawn) | 13 µg/mL (≈ 33 µM) | inactive | inactive | inactive | inactive | inactive | inactive | inactive | inactive | inactive | inactive | inactive |  | 
CCCC(=O)O[C@]1(C)CCC2[C@@H]3C(OC(CC(C)=O)[C@@H]31)[C@](C)(CCC(=O)O)OC(=O)[C@@H]2C (stereo partly drawn) | 20 µg/mL (≈ 44.2 µM) |  |  |  |  |  |  |  |  |  |  |  |  | 
CO[C@@H]1CC[C@]2(C)OC[C@H](C)C3C[C@@H](C)[C@@H](OC(C)=O)[C@H]4C(C[C@@]1(C)O)OC2[C@@H]34 (stereo partly drawn) | ≥ 50 µg/mL |  |  |  |  |  |  |  |  |  |  |  |  | 
C=C1CC2OC3[C@H]4C(C[C@@H](C)[C@@H](OC(C)=O)[C@@H]24)[C@@H](C)CO[C@@]3(C)CCC1=O (stereo partly drawn) | 9 µg/mL (≈ 23.9 µM) | inactive | inactive | inactive | inactive | inactive | inactive | inactive | inactive | inactive | inactive | inactive |  | 0.25 µg/mL (≈ 0.664 µM)
